Experiments:
Mut MEFs [1] = test: Cell survival assay, Crystal violet staining, Mut MEFs; format: cell-based, mouse; settings: for Survival (%) ± SEM Mut MEFs: 24 hours, untreated cells set to 100%
Protocol: Cells were seeded on 96-wells plate at a density of 5000 cells per well. Astrocytes were seeded following coating with 0.001% PDL.

Mut MEFs [2] = test: Survival under Tunicamycin-induced ER stress, Crystal Violet, MEFs; settings: Mut MEFs, 30 μM, 50 ng/ml Tunicamycin 22 hours (FIG. 20B)
Protocol: Mut MEFs were treated or not for 24 hours with the indicated concentrations of the indicated Sig-1R binders in the presence of 0.1 μg/ml Tunicamycin (Tun) during the last 22 hours. Following, the cells were washed, fixated and stained with Crystal Violet (CV) followed by measurement of absorbance at 570 nm. Shown is average % of CV staining relative to cells not treated with tunicamycin nor Sig-1R binder ±SEM of 3 independent experiments. *p<0.03.
Following, the cells were washed, fixated and stained with Crystal Violet and absorbance at 570 nm was measured. Data is presented relative to cells of the corresponding genotype not treated with p8G5 nor Tunicamycin. Shown is average % of CV staining ±SEM of 3 independent experiments.
Mut MEFs were treated or not for 24 hours with 10, 20 or 30 μM of the indicated Sig-1R binders in the presence of 50 ng/ml Tunicamycin (Tun) during the last 22 hours. Following, the cells were washed, fixated and stained with Crystal Violet (CV) followed by measurement of absorbance at 570 nm. Shown is % of CV staining relative to cells not treated with tunicamycin nor Sig-1R binder ±SEM of 3 independent experiments, *p<0.05.
Mut MEFs were incubated or not with the indicated concentrations of the indicated compounds for 2 hours followed by addition of 50 ng/ml Tunicamycin (Tun) for additional 22 hours, stained with Crystal Violet followed by measurement of absorbance at 570 nm. Shown is average normalized to Tun-treated cells without any compound ±SEM of 3 independent experiments. * not significant; ** p<0.02; *** all values p<0.04.

Mut MEFs [3] = test: JC1 staining of intact and damaged mitochondria (mitochondrial membrane potential); format: cell-based, mouse; settings: Mut MEFs, 10 μM
Protocol: Mut MEFs were treated or not for 6 hours with the indicated concentrations of p8G5 (blue), pre084 (purple), or NE-100 (yellow), washed and stained with Hoechst and JC1 for 30 minutes followed by image acquisition using In-Cell-Analyzer-2000. Shown is the % of red/green JC1 integrated intensity per cell relative to that in untreated WT cells of 2-4 independent experiments.
Following, the cells were washed, stained with Hoechst and JC-1 fluorescent dyes for 30 minutes, and subjected to image acquisition using In-Cell-Analyzer-2000. Shown is cellular content of damaged mitochondria (JC1 green channel, red bars), intact mitochondria (JC1 red channel, green bars) and damaged to intact mitochondria ratio (blue bars). Values of control (vehicle treated) cells was set to 100%.
Mut MEFs were treated with the indicated compounds at 10 μM for 24 hours followed by staining with fluorogenic dyes and image-based single-cell analysis. Shown is average effect on ROS level from at least 3-independent experiments ±SEM. […] Mut MEFs were incubated or not for 24 hours with 10 μM of the indicated compound, washed and stained with Crystal Violet. […] Mut MEFs were incubated or not for 24 hours with 10 μM of the indicated compound, washed and stained with JC1 and Hoechst followed by image-based single-cell analysis. Values of untreated cells were set as 100%. Shown is average of at least 3 independent experiments for each parameter compared to its matching control ±SEM. * p<0.05. Putative targets are indicated.
Mut MEFs were incubated or not for 24 hours with 10 μM of the indicated compounds, washed and stained with Hoechst and JC1 followed by image-based single-cell analysis. […] Mut MEFs were incubated or not with the indicated concentrations of the indicated compounds for 2 hours followed by addition of 50 ng/ml Tunicamycin (Tun) for additional 22 hours, stained with Crystal Violet followed by measurement of absorbance at 570 nm.
MEFs were seeded on 1% gelatin-coated 96-wells plate at a density of 5000 cells per well. 24 hours post-plating the cells were incubated with the tested compounds for additional 24 hours. Several DMSO-treated cells (control) were included in each plate at different locations. Following, the cells were stained by addition of fluorogenic dyes for further 30 minutes incubation at 37° C. […] CellROX was used together with Hoechst and CFSE; JC1 was used together with Hoechst. Cells were washed with Hank's balanced salt solution (HBSS) which was used for images acquisition using IN Cell Analyzer 2000 (GE Healthcare, Pitsburgh, Pa., USA). IN Cell Developer Toolbox 1.9.1 software (GE Healthcare) was used for analysis which included cells segmentation using Hoechst and/or CFSE signals. For analysis of JC1 staining, integrated intensity of green and red emissions were used for detection of damaged and intact mitochondria, respectively.

Row | SMILES | Survival (%) ± SEM Mut MEFs (Mut MEFs [1]; 10 μM) [%] | Survival (%) ± SEM Mut MEFs (Mut MEFs [1]; 20 μM) [%] | Survival (%) ± SEM Mut MEFs (Mut MEFs [1]; 30 μM) [%] | cell survival following Tun-induced cell death (Mut MEFs [2]) | also measured
1 | Cc1cc(C)cc(OCCCCCN2CCOCC2)c1 [Hit H8-1, 4-[5-(3,5-dimethylphenoxy)pentyl]morpholine] | 104 ± 2.7 | 103 ± 4.7 | 97 ± 3.9 |  | 
2 | Cc1ccc(OCCCCCN2CCOCC2)cc1C [Hit H8-2, 4-[5-(3,4-dimethylphenoxy)pentyl]morpholine] | 92 ± 4.2 | 94 ± 8.8 | 95 ± 13.1 | most potent effect | 
3 | Cc1cccc(OCCCCCCN2CCOCC2)c1 [Hit H8-3, 4-[6-(3-methylphenoxy)hexyl]morpholine] | 100 ± 7.2 | 96 ± 4.1 | 88 ± 4.5 |  | 
4 | Cc1cccc(OCCCCN2CCOCC2)c1 [Hit H8-4, 4-[4-(3-methylphenoxy)butyl]morpholine] | 92 ± 8.5 | 95 ± 4.2 | 98 ± 5.4 |  | 
5 | Cc1ccc(OCCCCN2CCOCC2)cc1C [Hit H8-5, 4-[4-(3,4-dimethylphenoxy)butyl]morpholine] | 92 ± 1.7 | 100 ± 4.4 | 98 ± 13.8 | most potent effect | 
6 | COc1cccc(OCCCCCN2CCOCC2)c1 [Hit H8-6, 4-[5-(3-methoxyphenoxy)pentyl]morpholine] | 97 ± 5.1 | 92 ± 1.1 | 93 ± 5.2 | most potent effect | 
7 | Clc1cccc(OCCCCCN2CCOCC2)c1 [Hit H8-7, 4-[5-(3-chlorophenoxy)pentyl]morpholine] | 98 ± 5.1 | 91 ± 4.7 | 88 ± 9.7 | most potent effect | mitochondrial health, damaged/intact organelle ratio (JC1) (Mut MEFs [3]; 24 hours (FIG. 20A)): at the top of the list
8 | CN1CCN(CCCCCOc2ccccc2F)CC1 [Hit H8-8, 1-[5-(2-fluorophenoxy)pentyl]-4-methylpiperazine] | 101 ± 5.6 | 99 ± 11 | 90 ± 3.5 |  | 
9 | COc1ccc(OC)c(N=Nc2nc3ccccc3n2C)c1 [Hit H16, 2-[(2,5-dimethoxyphenyl)diazenyl]-1-methyl-1H-benzimidazole] |  |  |  |  | cell viability / toxicity (crystal violet) (Mut MEFs [1]; Mut MEFs, 10 μM, 24 hours (FIG. 14B)): significant decrease in cell viability
10 | Cc1cc(-c2ccccc2)nc2cc(C(=O)N3C(C)CCCC3C)nn12 (centres unmarked) [Hit H17, 2-[(2,6-dimethyl-1-piperidinyl)carbonyl]-7-methyl-5-phenylpyrazolo[1,5-a]pyrimidine] |  |  |  |  | effect on mitochondrial health (JC1, intact and damaged mitochondria) (Mut MEFs [3]; 24 hours (FIG. 14C)): significant beneficial effect on mitochondrial health
11 | CNC1CCC(N(Cc2cccc(-c3ccncc3)c2)C(=O)c2sc3ccccc3c2Cl)CC1 (centres unmarked) [SAG, reference compound] |  |  |  |  | Survival (%) ± SEM Mut MEFs (Mut MEFs [1]; 0.01 μM): 98 ± 2.1%; Survival (%) ± SEM Mut MEFs (Mut MEFs [1]; 0.05 μM): 92 ± 3.2%; Survival (%) ± SEM Mut MEFs (Mut MEFs [1]; 0.1 μM): 95 ± 2.1%; Survival (%) ± SEM Mut MEFs (Mut MEFs [1]; 1 μM): 68 ± 2.7%
